Test results: ChEMBL document CHEMBL3885881, “DrugMatrix”

Organism: Rattus norvegicus
Assay: DrugMatrix - Regimen: Daily Repeat
Type: toxicity, organism-based, Sprague-Dawley
Parameters: regimen Daily Repeat, gender Male, age 6-8 weeks
Details: in vivo, po, 2000 mg/kg, route oral GAVAGE, dose level High, vehicle .5 % CMC; for ABSOLUTE BASOPHIL / ABSOLUTE EOSINOPHIL / ABSOLUTE LYMPHOCYTE / ABSOLUTE MONOCYTE / ABSOLUTE SEGMENTED NEUTROPHIL / BASOPHIL / EOSINOPHIL / ERYTHROCYTE COUNT / HEMATOCRIT / HEMOGLOBIN / LEUKOCYTE COUNT / LYMPHOCYTE / MEAN CORPUSCULAR HEMOGLOBIN / MEAN CORPUSCULAR HEMOGLOBIN CONCENTRATION / MEAN CORPUSCULAR VOLUME / MONOCYTE / NEUTROPHIL / NUCLEATED RED BLOOD CELLS / PLATELET COUNT: tissue Blood; for ALANINE AMINOTRANSFERASE / ALBUMIN / ALKALINE PHOSPHATASE / ASPARTATE AMINOTRANSFERASE / BLOOD UREA NITROGEN / CARBON DIOXIDE / CHLORIDE / CHOLESTEROL / CREATINE PHOSPHOKINASE / CREATININE / GLUCOSE / LACTATE DEHYDROGENASE / LIPASE / PHOSPHORUS / POTASSIUM / SODIUM / TOTAL BILIRUBIN / TOTAL PROTEIN / URIC ACID: tissue Plasma

NC[C@H]1CC[C@H](C(=O)O)CC1 [TRANEXAMIC ACID]
ABSOLUTE BASOPHIL (72 h, time 3 day): 0 CELLS/uL
ABSOLUTE EOSINOPHIL (72 h, time 3 day): 131 CELLS/uL
ABSOLUTE LYMPHOCYTE (72 h, time 3 day): 11124 CELLS/uL
ABSOLUTE MONOCYTE (72 h, time 3 day): 58.67 CELLS/uL
ABSOLUTE SEGMENTED NEUTROPHIL (72 h, time 3 day): 1786.33 CELLS/uL
BASOPHIL (72 h, time 3 day): 0%
EOSINOPHIL (72 h, time 3 day): 1%
ERYTHROCYTE COUNT (72 h, time 3 day): 5.38 x10E6/uL
HEMATOCRIT (72 h, time 3 day): 32.57%
HEMOGLOBIN (72 h, time 3 day): 12.97 G/DL
LEUKOCYTE COUNT (72 h, time 3 day): 13.1 x10E3/uL
LYMPHOCYTE (72 h, time 3 day): 84%
MEAN CORPUSCULAR HEMOGLOBIN (72 h, time 3 day): 24.13 pg
MEAN CORPUSCULAR HEMOGLOBIN CONCENTRATION (72 h, time 3 day): 39.83 G/DL
MEAN CORPUSCULAR VOLUME (72 h, time 3 day): 60.57 fL
MONOCYTE (72 h, time 3 day): 0.33%
NEUTROPHIL (72 h, time 3 day): 14.67%
NUCLEATED RED BLOOD CELLS (72 h, time 3 day): 0 /100WBC
PLATELET COUNT (72 h, time 3 day): 1338.33 x10E3/uL
ALANINE AMINOTRANSFERASE (72 h, time 3 day): 49.67 u/L
ALBUMIN (72 h, time 3 day): 3.9 G/DL
ALKALINE PHOSPHATASE (72 h, time 3 day): 293.67 u/L
ASPARTATE AMINOTRANSFERASE (72 h, time 3 day): 92 u/L
BLOOD UREA NITROGEN (72 h, time 3 day): 15.33 mg/dL
CARBON DIOXIDE (72 h, time 3 day): 25.33 mmol/L
CHLORIDE (72 h, time 3 day): 100 MEQ/L
CHOLESTEROL (72 h, time 3 day): 71.33 mg/dL
CREATINE PHOSPHOKINASE (72 h, time 3 day): 923.33 u/L
CREATININE (72 h, time 3 day): 0.15 mg/dL
GLUCOSE (72 h, time 3 day): 161 mg/dL
LACTATE DEHYDROGENASE (72 h, time 3 day): 154.33 u/L
LIPASE (72 h, time 3 day): 10.33 u/L
PHOSPHORUS (72 h, time 3 day): 12.03 mg/dL
POTASSIUM (72 h, time 3 day): 8.02 MEQ/L
SODIUM (72 h, time 3 day): 142.27 MEQ/L
TOTAL BILIRUBIN (72 h, time 3 day): 0.1 mg/dL
TOTAL PROTEIN (72 h, time 3 day): 5.47 G/DL
URIC ACID (72 h, time 3 day): 1.53 mg/dL
ABSOLUTE BASOPHIL (120 h, time 5 day): 0 CELLS/uL
ABSOLUTE EOSINOPHIL (120 h, time 5 day): 40.33 CELLS/uL
ABSOLUTE LYMPHOCYTE (120 h, time 5 day): 11921 CELLS/uL
ABSOLUTE MONOCYTE (120 h, time 5 day): 0 CELLS/uL
ABSOLUTE SEGMENTED NEUTROPHIL (120 h, time 5 day): 1438.67 CELLS/uL
BASOPHIL (120 h, time 5 day): 0%
EOSINOPHIL (120 h, time 5 day): 0.33%
ERYTHROCYTE COUNT (120 h, time 5 day): 5.89 x10E6/uL
HEMATOCRIT (120 h, time 5 day): 34.97%
HEMOGLOBIN (120 h, time 5 day): 14.13 G/DL
LEUKOCYTE COUNT (120 h, time 5 day): 13.4 x10E3/uL
LYMPHOCYTE (120 h, time 5 day): 89%
MEAN CORPUSCULAR HEMOGLOBIN (120 h, time 5 day): 24.03 pg
MEAN CORPUSCULAR HEMOGLOBIN CONCENTRATION (120 h, time 5 day): 40.43 G/DL
MEAN CORPUSCULAR VOLUME (120 h, time 5 day): 59.4 fL
MONOCYTE (120 h, time 5 day): 0%
NEUTROPHIL (120 h, time 5 day): 10.67%
NUCLEATED RED BLOOD CELLS (120 h, time 5 day): 0 /100WBC
PLATELET COUNT (120 h, time 5 day): 1475.33 x10E3/uL
ALANINE AMINOTRANSFERASE (120 h, time 5 day): 55 u/L
ALBUMIN (120 h, time 5 day): 4.23 G/DL
ALKALINE PHOSPHATASE (120 h, time 5 day): 354.33 u/L
ASPARTATE AMINOTRANSFERASE (120 h, time 5 day): 79 u/L
BLOOD UREA NITROGEN (120 h, time 5 day): 17.33 mg/dL
CARBON DIOXIDE (120 h, time 5 day): 25.67 mmol/L
CHLORIDE (120 h, time 5 day): 102 MEQ/L
CHOLESTEROL (120 h, time 5 day): 64.67 mg/dL
CREATINE PHOSPHOKINASE (120 h, time 5 day): 364.33 u/L
CREATININE (120 h, time 5 day): 0.17 mg/dL
GLUCOSE (120 h, time 5 day): 150 mg/dL
LACTATE DEHYDROGENASE (120 h, time 5 day): 135.67 u/L
LIPASE (120 h, time 5 day): 10 u/L
PHOSPHORUS (120 h, time 5 day): 12.53 mg/dL
POTASSIUM (120 h, time 5 day): 7.4 MEQ/L
SODIUM (120 h, time 5 day): 145 MEQ/L
TOTAL BILIRUBIN (120 h, time 5 day): 0.2 mg/dL
TOTAL PROTEIN (120 h, time 5 day): 6.1 G/DL
URIC ACID (120 h, time 5 day): 2.6 mg/dL
